Consider eleven compounds from patent publication US6335350B1, “Acetamide and substituted acetamide-containing thiourea inhibitors of herpes viruses” (American Home Products Corporation, priority 1998, dated 2002).

In one assay the test system is HCMV wild-type. The experiment in a line: HCMV yield assay. As to conditions: Human betaherpesvirus 5, Fibroblast, human foreskin fibroblasts; read-out: IC50 Ug/ml HCMV. The class given is cell-based, human cytomegalovirus. The procedure, abridged: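 Value is the compound amount cutting virus yield titer by 50% (IC50) or 90% (IC90). Human foreskin fibroblasts infected with wild-type HCMV (MOI typically 0.2) under varying compound; progeny harvested day 3, titered compound-free on fibroblasts, plaques scored at 2 weeks.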

A further assay has as its system HSV-1. As to the kind of experiment: HSV Antiviral (ELISA) Assay. As to conditions: Vero cells, HSV-1; for IC50: Human alphaherpesvirus 1, Vero, read-out: IC50 Ug/ml HSV. The class given is cell-based, herpes simplex virus type 1. The procedure, abridged:
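Replication measured as glycoprotein D signal in fixed cells: anti-gD antibody plus β-galactosidase-linked secondary, fluorogenic substrate read at 365/450 nm. Vero cells (2% FBS DMEM) received compound 30 min pre-infection, HSV-1 MOI 0.006, ~24 h incubation; IC50 relative to no-compound fluorescence.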
Background: An ELISA detects its analyte on a solid surface through an enzyme-linked reagent.

Another assay concerns VZV strain Ellen. The experiment in a line: VZV Antiviral (ELISA) Assay. The format is cell-based, varicella-zoster virus. As to conditions: Human alphaherpesvirus 3, Fibroblast, human foreskin fibroblast cells; for IC50: read-out: IC50 Ug/ml VZV; for inhibition at 10 µg/mL: read-out: % inhibition 10 ug/ml VZV, 10 ug/ml. The gist of the method: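 Antiviral IC50 is derived by comparing fluorescence with and without compound after a three-day culture of VZV-infected plus uninfected foreskin fibroblasts. Replication is quantified by ELISA against glycoprotein II, using a β-galactosidase secondary and methyl umbelliferyl-β-D-galactoside.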

Converted amounts (≈) assume the structure as drawn.

Turning to `CC(=O)Nc1ccc(NC(=S)Nc2ccc(CCO)c(Cl)c2)cc1` [Example 864, N-(4-{3-[3-Chloro-4-(2-hydroxy-ethyl)-phenyl]-thioureido}-phenyl)-acetamide], the IC50 in the assay with HCMV wild-type, with HSV-1 and in the assay on VZV strain Ellen was more than 10 µg/mL in each case. In addition, in the assay on VZV strain Ellen, the inhibition at 10 µg/mL turned out to be 21%.
In the case of `COc1c(NC(=S)Nc2ccc(NC(C)=O)cc2)cc(Cl)c(C)c1Cl` [Example 876, N-{4-[3-(3,5-Dichloro-2-methoxy-4-methyl-phenyl)-thioureido]-phenyl}-acetamide], in the assay on HCMV wild-type, the IC50 was found to be 1 µg/mL (≈ 2.51 µM). The “IC50 Ug/ml HSV” value in the assay with HSV-1 stood at 10 Ug/ml. Moreover, in the assay on VZV strain Ellen, the IC50 was more than 10 µg/mL and the inhibition at 10 µg/mL amounted to 58%.
As to `COc1c(C)cc(NC(=S)Nc2ccc(NC(C)=O)cc2)cc1Cl` [Example 877, N-{4-[3-(3-Chloro-4-methoxy-5-methyl-phenyl)-thioureido]-phenyl}-acetamide], the IC50 is 2 µg/mL (≈ 5.5 µM) in the assay with HCMV wild-type, 30 µg/mL (≈ 82.4 µM) in the assay on HSV-1 and more than 10 µg/mL with VZV strain Ellen. The inhibition at 10 µg/mL in the assay with VZV strain Ellen was determined as 15%.
Regarding `CC(=O)Nc1ccc(NC(=S)Nc2ccccc2[N+](=O)[O-])cc1` [Example 878, N-{4-[3-(2-Nitro-phenyl)-thioureido]-phenyl}-acetamide], the IC50 with HCMV wild-type is 40 µg/mL (≈ 121 µM); with HSV-1 it was 50 µg/mL (≈ 151 µM); in the assay with VZV strain Ellen, more than 10 µg/mL. The inhibition at 10 µg/mL in the assay with VZV strain Ellen is 23%.
The corresponding values for `CC(=O)Nc1ccc(NC(=S)Nc2ccc([N+](=O)[O-])cc2)cc1` [Example 879, N-{4-[3-(4-Nitro-phenyl)-thioureido]-phenyl}-acetamide] are more than 10 µg/mL, more than 50 µg/mL, more than 10 µg/mL and 16%.
`COc1ccc(Cl)c(NC(=S)Nc2ccc(NC(C)=O)cc2)c1` [Example 881, N-{4-[3-(2-Chloro-5-methoxy-phenyl)-thioureido]-phenyl}-acetamide]: the IC50 is more than 50 µg/mL in the assay with HCMV wild-type, 40 µg/mL (≈ 114 µM) in the assay on HSV-1 and more than 10 µg/mL in the assay on VZV strain Ellen. Further, in the assay on VZV strain Ellen, the inhibition at 10 µg/mL was 12%.
The corresponding values for `CC(=O)Nc1ccc(NC(=S)Nc2cc(Cl)c(OCC(N)=O)c(Cl)c2)cc1` [Example 882, 2-{4-[3-(4-Acetylamino-phenyl)-thioureido]-2,6-dichloro-phenoxy}-acetamide] are more than 50 µg/mL, more than 50 µg/mL, more than 10 µg/mL and 15%.
The corresponding values for `COC(=O)COc1c(Cl)cc(NC(=S)Nc2ccc(NC(C)=O)cc2)cc1Cl` [Example 883, {4-[3-(4-Acetylamino-phenyl)-thioureido]-2,6-dichloro-phenoxy}-acetic acid methyl ester] are more than 10 µg/mL, 50 µg/mL (≈ 113 µM), more than 10 µg/mL and 17%.
The corresponding values for `CCOC(=O)COc1c(Cl)cc(NC(=S)Nc2ccc(NC(C)=O)cc2)cc1Cl` [Example 884, {4-[3-(4-Acetylamino-phenyl)-thioureido]-2,6-dichloro-phenoxy}-acetic acid ethyl ester] are more than 10 µg/mL, more than 50 µg/mL, more than 10 µg/mL and 21%.
With `CC(=O)Nc1ccc(NC(=S)Nc2cc(Cl)c(Oc3ccccc3)c(Cl)c2)cc1` [Example 885, N-{4-[3-(3,5-Dichloro-4-phenoxy-phenyl)-thioureido]-phenyl}-acetamide], the values for the IC50 with HCMV wild-type, with HSV-1 and in the assay on VZV strain Ellen were more than 10 µg/mL, 15 µg/mL (≈ 33.6 µM) and more than 10 µg/mL, respectively. Also, the inhibition at 10 µg/mL with VZV strain Ellen was 45%.
Take `CC(=O)Nc1ccc(NC(=S)Nc2cc(Cl)c(OCC#N)c(Cl)c2)cc1` [Example 886, N-(4-{3-[3,5-Dichloro-4-(2-nitrilo-ethoxy)-phenyl]-thioureido}-phenyl)-acetamide]: the figures for the IC50 with HCMV wild-type, in the assay with HSV-1 and in the assay on VZV strain Ellen were 10 µg/mL (≈ 24.4 µM), 25 µg/mL (≈ 61.1 µM) and more than 15 µg/mL, respectively. Besides, the inhibition at 10 µg/mL with VZV strain Ellen turned out to be 50%.
